Measurements taken from US7566808B2, “Management of ophthalmologic disorders, including macular degeneration” (President and Fellows of Harvard College, priority 2004, dated 2009).

How the values were obtained:
Sprague Dawley rats = details: reference [24]; cited from earlier work
[1] = Tolerability in treated animals; type: in vivo; details: even when administered every 48 h
Text: With respect to the pharmacology of the isoprenoid mRPE65 antagonists, it should be noted that the effects of both TDT and TDH are substantially more persistent than with 13-RA, probably because they are more hydrophobic than the retinoic acids. An increase in hydrophobicity tends to slow down rates of elimination of drugs.

purified bovine mRPE65 = molecular target: T1, purified bovine mRPE65 (Bos taurus, UniProt Q28175); test: Fluorescence titration of mRPE65 with TDT and TDH; details: 0.952 μM mRPE65, phosphate buffered saline pH 7.4, 1% CHAPS; read-out: KD for binding to mRPE65
T1 construct: mRPE65 was extracted and purified from the bovine eye cups using a procedure described earlier; tissue W. L. Lawson Co; host or cells: bovine eye cups (retinal pigment epithelium)
T1 sequence (Q28175 whole entry): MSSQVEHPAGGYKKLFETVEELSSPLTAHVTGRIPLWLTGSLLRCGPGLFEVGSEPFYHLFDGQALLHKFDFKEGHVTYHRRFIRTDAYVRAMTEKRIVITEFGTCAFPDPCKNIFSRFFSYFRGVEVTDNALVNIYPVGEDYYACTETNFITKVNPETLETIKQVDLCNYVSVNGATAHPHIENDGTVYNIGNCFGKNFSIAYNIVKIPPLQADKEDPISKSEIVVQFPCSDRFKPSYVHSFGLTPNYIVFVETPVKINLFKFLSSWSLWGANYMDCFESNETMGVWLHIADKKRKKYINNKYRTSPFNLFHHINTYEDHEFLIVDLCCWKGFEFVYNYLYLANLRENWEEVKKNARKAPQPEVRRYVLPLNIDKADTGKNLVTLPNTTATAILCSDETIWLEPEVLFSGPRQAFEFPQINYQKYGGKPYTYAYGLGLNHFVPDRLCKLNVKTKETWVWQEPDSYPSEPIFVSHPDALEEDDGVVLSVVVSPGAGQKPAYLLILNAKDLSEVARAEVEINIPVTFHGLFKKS
Procedure: Purification of mRPE65: mRPE65 was extracted and purified from the bovine eye cups using a procedure described earlier. Protein purity was established by silver staining and Western blotting (1:4000 primary antibody—1 h at room temperature and 1:4000 secondary antibody 0.5 h at room temperature). Buffers were changed by dialysis in the request buffer overnight in a slide-a-lyser™ cassette from Pierce (10 KDa MWCO). RPE65 solutions were concentrated with an Amicon Ultra™ centrifugal filtration device (30 KDa-cutoff) from Millipore Corp. The final protein solution contained 100 mM phosphate buffered saline (150 mM NaCl) pH 7.4 and 1% CHAPSO. The protein concentration was measured by a modified Lowry method using the Bio-Rad DC protein assay protocol.
Fluorescence binding assays: RPE65 in PBS, 1% CHAPS, pH 7.4 was used in the fluorometric titration studies. All titrations were performed at 25° C. The samples in PBS buffer were excited at 280 nm and the fluorescence was scanned from 300 to 500 nm. Fluorescence measurements, using 450 μL quartz cuvettes with a 0.5 cm path length, were made at 25° C. on a Jobin Yvon Instruments, Fluoromax 2 employing the right-angle detection method.
The fluorescence of the protein solution was measured after equilibrating it at 25° C. for 10 min. […] The binding constant (KD) was calculated from the fluorescence intensity as described before (17,19). […]

Abca4−/− mice = test: A2E accumulation after chronic treatment of Abca4−/− mice; type: in vivo; details: 50 mg/kg i.p. twice a week for 2 months
Procedure: Tissue extraction and HPLC analysis: Posterior eye cups were pooled and homogenized in PBS using a tissue grinder. An equal volume of a mixture of chloroform/methanol (2:1) was added and the sample was extracted three times. To remove insoluble material, extracts were filtered through cotton and passed through a reversed phase (C18 Sep-Pak, Millipore) cartridge with 0.1% TFA in methanol. After removing solvent by evaporation under gas, the extract was dissolved in methanol containing 0.1% TFA, for HPLC analysis. For quantification of A2E, a Waters Alliance 2695 HPLC was employed with a Atlantis® dC18 column (Waters, 4.6×150 mm, 3 μm) and the following gradient of acetonitrile in water (containing 0.1% trifluoroacetic acid): 90-100% (0-10 min), 100% acetonitrile (10-20 min), and a flow rate of 0.8 mL/min with monitoring at 430 nm. The injection volume was 10 μL. […] Levels of A2E and iso-A2E were determined by reference to an external standard of HPLC-purified A2E/iso-A2E. […]
As shown in FIGS. 29A-D, both compounds, but especially TDT, were highly efficient in lowering A2E accumulation. FIGS. 29A-D show quantitation of A2E and iso-A2E in eye cups of Abcr −/− mice. […] FIG>29D: A2E/iso-A2E quantitation from integrated peak areas normalized to external standards. Values expressed as picomoles per eye and are based on single samples obtained by pooling 4 eyes.

Kd (purified bovine mRPE65) [nM]	SMILES	inhibition of 11-cis-retinal regeneration after bleaching (literature) (Sprague Dawley rats)	tolerability / signs of toxicity [1]	effect on A2E accumulation (Abca4−/− mice)
	CC1=C(/C=C/C(C)=C/C=C/C(C)=C\C(=O)O)C(C)(C)CCC1 [13-cis-retinoic acid, reference compound]	approximately 4 fold		
96 ± 14	CCCCCCCCCCCCCCCCNC(=O)/C=C(\C)CC/C=C(\C)CCC=C(C)C [TDH, 3,7,11-Trimethyl-dodeca-2,6,10-trienoic acid hexadecylamide]		no obvious signs of toxicity and/or distress	profound effects on limiting A2E accumulation
58 ± 5	CCCCCCCCCCC(=O)/C=C(\C)CC/C=C(\C)CCC=C(C)C [TDT, 13,17,21-Trimethyl-docosa-12,16,20-trien-11-one]		no obvious signs of toxicity and/or distress	profound effects on limiting A2E accumulation
